Data set [1] can be described thus: Acute toxicity, intraperitoneal. As to conditions: mouse, in vivo, ip, mice, read-out: LD50 (approximate). As to the method:
Acute toxicological studies were carried out on mice by intraperitoneal administration of the compounds of Formula (I). The approximate LD50 values for representative compounds are given as follows: […]

Data set [2] has as its system Delayed-Type Hypersensitivity (DTH) to sheep red blood cells (SRBC). Nature of the data set: Suppression of delayed-type hypersensitivity (SRBC footpad swelling). To be noted: for inhibition in vivo at 1 mg: Erythrocyte, 1 mg./mouse i.p.; for suppression of DTH reaction: anti-inflammatory drugs and protease-inhibitors, 1 mg./mouse. It counts as in vivo, mouse. As to the method:
The compounds of Formula (I) show suppression of various delayed-type hypersensitivity. In reference to the method by Lagrange [J. Exp. Med. 139, 528 (1974)], 10^8 sheep red blood cells (SRBC) without adjuvant were subcutaneously injected into the mouse hind footpad to immunize the animal. Four days later the animals were challenged by subcutaneous injection of 10^8 SRBC into another footpad. DTH response was measured as the increase in the thickness of footpad 24 hours after the injection of SRBC.
Varying doses of Compound-1 were administered orally or intraperitoneally either at the time of immunization (day 0) or challenge (day 4).
In FIG. 1 the ordinate indicates the swelling (× 0.1 mm.) of mice footpads on day 5 and the abscissa indicates the dose of Compound-1 per mouse administered by the oral (right) and intraperitoneal (left) routes. Solid line curve indicates the relationship when Compound-1 was administered on day 0 and the dotted line curve indicates the relationship when given on day 4.
The compounds were administered intraperitoneally in a dose 1 mg./mouse at the time of immunization (day 0) or challenge (day 4). Table 1 includes the results of humoral antibody response described later.

Data set [3] concerns primary antibody formation to sheep red blood cells (SRBC), spleen cells. In words: Suppression of primary antibody formation (plaque forming cells, Jerne's method). It counts as in vivo, mice (ddY-strain). As to conditions: Erythrocyte, ip, 96 h; 1 mg./mouse i.p.; read-out: Suppression, Plaque Forming Cells (suppression rate of primary antibody formation).
Procedure: 10^8 sheep red blood cells (SRBC) were injected intravenously into ddY-strain mice to immunize the animals, when the compounds of Formula (I) were administered intraperitoneally.
Each compound was administered intraperitoneally in the dosage of 1 mg./mouse.
Data set [4] deals with passive cutaneous anaphylaxis (PCA). Nature of the data set: Suppression of passive cutaneous anaphylaxis (PCA). The class given is in vivo, guinea pigs. As to conditions: oral 100 mg./kg.; dilution giving a 10 mm. diameter blue zone; control 1060. Here is the method: The compounds of Formula (I) are active in suppressing passive cutaneous anaphylaxis (PCA) in guinea pigs. Guinea pigs received intradarmally serial dilutions of antiserum (0.1 ml.), which was obtained from guinea pigs immunized with a mixture of egg albumin and Freund's complete adjuvant. At the time of sensitization with antiserum, the compound of Formula (I) was administered either orally (100 mg./kg.) or intraperitoneally (50 mg./kg.).
Four hours later the animals were challenged by intravenous injection of a mixture of 5 mg. egg albumin and Evans blue dye. The reaction was measured 30 minutes later by the blue zone which emerged at the point of antiserum injection.

Data set [5] deals with carrageenin-induced edema. As to conditions: 1 mg./mouse; cited from earlier work.
The mark [6] stands for this setting: 96 h, at challenge (day 4), read-out: Suppression, Delayed-Type Hypersensitivity, Administered at Induction (suppression rate).
Setting [7] is: ip, 0 h, at immunization (day 0), read-out: Suppression, Delayed-Type Hypersensitivity, Administered at Immunization (suppression rate).

Where two headings read alike, the source gives them in different places.

As usually defined, the LD50 is the dose at which mortality reaches 50%. In the case of `O=C(Oc1ccccc1C(=O)Nc1cc(Cl)c(OC(=O)c2ccccc2)c(Cl)c1)c1ccccc1` [Compound 6], the LD50 in data set [1] amounted to 2800 mg/kg. Moreover, the figures for the inhibition in vivo at 1 mg in data set [2] (setting [6]), in data set [2] (setting [7]) and in data set [3] were greater than 75%, 0 to 25% and greater than 75%, respectively.

Take `CC(=O)Oc1ccccc1C(=O)Nc1cc(Cl)cc(Cl)c1OC(C)=O` [Compound 7]: in data set [1], the LD50 was greater than 3000 mg/kg. In addition, the results for the inhibition in vivo at 1 mg in data set [2] (setting [6]), in data set [2] (setting [7]) and in data set [3] were greater than 75%, 0 to 25% and 50 to 75%, respectively.

In the case of `O=C(Nc1cc(Br)cc(Br)c1O)c1ccccc1O` [Compound 13], the LD50 in data set [1] came to 1280 mg/kg. The inhibition in vivo at 1 mg lay in the range of 50 to 75% in data set [2] (setting [6]), 50 to 75% in data set [2] (setting [7]) and 0 to 25% in data set [3].

As for `CCC(=O)Oc1ccccc1C(=O)Nc1cc(Br)cc(Br)c1OC(=O)CC` [Compound 15], the LD50 in data set [1] was found to be 2200 mg/kg. Further, the inhibition in vivo at 1 mg in data set [2] (setting [6]) fell in the range of 50 to 75%; in data set [2] (setting [7]), 50 to 75%; in data set [3] it was 0 to 25%.

For the molecule `Cc1cc(Cl)cc(NC(=O)c2ccccc2O)c1O` [Compound 19], in data set [1], the 50% lethal dose (LD50) worked out at 1800 mg/kg. For the same molecule, the inhibition in vivo at 1 mg is 25 to 50% in data set [2] (setting [6]), 0 to 25% in data set [2] (setting [7]) and 25 to 50% in data set [3].

For `O=C(Nc1cccc(Cl)c1O)c1ccccc1O` [Compound 23], the LD50 in data set [1] was 1550 mg/kg. Besides, the values for the inhibition in vivo at 1 mg in data set [2] (setting [6]), in data set [2] (setting [7]) and in data set [3] were 0 to 25%, 0 to 25% and 50 to 75%, respectively.

As for `CC(=O)Oc1ccccc1C(=O)Nc1cccc(Cl)c1OC(C)=O` [Compound 25], in data set [1], the LD50 came out at 2500 mg/kg. Moreover, the inhibition in vivo at 1 mg in data set [2] (setting [6]) was in the range of 25 to 50%; in data set [2] (setting [7]), 0 to 25%; in data set [3], 50 to 75%.

Turning to `COc1ccc(NC(=O)c2ccc(F)cc2O)cc1` [Compound 28], the LD50 in data set [1] came to 2800 mg/kg. Further, the figures for the inhibition in vivo at 1 mg in data set [2] (setting [6]), in data set [2] (setting [7]) and in data set [3] were greater than 75%, 0 to 25% and greater than 75%, respectively.

As to `O=C(Nc1cc(Br)c(O)c(Br)c1)c1ccccc1O` [Compound-12, 3',5'-Dibromo-2,4'-dihydroxybenzanilide], the median lethal dose (LD50) in data set [1] was 1100 mg/kg. The “Max. Dilution of Antiserum, Oral” value in data set [4] worked out at 548. Also, the inhibition in vivo at 1 mg was 50 to 75% in data set [2] (setting [6]), greater than 75% in data set [2] (setting [7]) and 0 to 25% in data set [3].

`COc1ccc(NC(=O)c2ccccc2O)cc1` [Compound-27, 2-Hydroxy-4'-methoxybenzanilide]: in data set [1], the LD50 was greater than 3000 mg/kg. Further, the “Max. Dilution of Antiserum, Oral” value in data set [4] is 284. Moreover, the inhibition in vivo at 1 mg in data set [2] (setting [6]) was greater than 75%; in data set [2] (setting [7]), 0 to 25%; in data set [3], greater than 75%.

On to `COc1ccc(NC(=O)c2ccc(C)cc2O)cc1` [Compound-29, 2-Hydroxy-4-methyl-4'-methoxybenzanilide], for which the LD50 in data set [1] was found to be 2500 mg/kg. The inhibition in vivo at 1 mg in data set [2] (setting [6]) was greater than 75%; in data set [2] (setting [7]), 0 to 25%; in data set [3], 25 to 50%.

With `CC(=O)Oc1ccccc1C(=O)O` [aspirin, reference compound], the “suppression of DTH reaction” value in data set [2] was “little suppression of this DTH reaction”. Also, the “suppression of carrageenin-induced edema” value in data set [5] was “strongly suppress carrageenin-induced edema”.

On to `CC(C)C[C@H](NC(=O)[C@@H](NC(=O)N[C@@H](Cc1ccccc1)C(=O)O)[C@@H]1CCN=C(N)N1)C(=O)N[C@H](C=O)Cc1ccccc1` [chymostatin, reference compound], for which the “suppression of DTH reaction” value in data set [2] is reported as “little suppression of this DTH reaction”. For the same molecule, in data set [5], the “suppression of carrageenin-induced edema” value is listed as “strongly suppress carrageenin-induced edema”.

Take `CC(=O)N[C@@H](CC(C)C)C(=O)N[C@@H](CC(C)C)C(=O)N[C@H](C=O)CCCNC(=N)N` [leupeptin, reference compound]: the “suppression of DTH reaction” value in data set [2] is listed as “little suppression of this DTH reaction”. Moreover, the “suppression of carrageenin-induced edema” value in data set [5] is listed as “strongly suppress carrageenin-induced edema”.

These data come from patent US4032635A, “Pharmaceutical method for the therapy of immune diseases” (Zaidan Hojin Biseibutsu Kagaku Kenkyu Kai, priority 1975, dated 1977).
